Experimental data from patent US9636418B2 (priority 2013, dated 2017).
“And” between values parts separate entries of the source, which are not always exact repeats. Identical values can stand only once. Like-named read-outs stand apart in the source and are kept apart here.

Experiments:
Experiment in all cases: cell-based
[1] = biological target: hNav1.3 (Homo sapiens, UniProt Q9NY46); conditions: IonWorks Quattro; read-out: IC50 Nav1.3
[2] = biological target: T1, hNav1.5 (Homo sapiens, UniProt Q14524); conditions: IonWorks Quattro; read-out: IC50 Nav1.5
[3] = biological target: T2, hNav1.7 (Homo sapiens, UniProt Q15858); conditions: IonWorks Quattro; read-out: IC50 Nav1.7
T2 sequence (Q15858 whole entry): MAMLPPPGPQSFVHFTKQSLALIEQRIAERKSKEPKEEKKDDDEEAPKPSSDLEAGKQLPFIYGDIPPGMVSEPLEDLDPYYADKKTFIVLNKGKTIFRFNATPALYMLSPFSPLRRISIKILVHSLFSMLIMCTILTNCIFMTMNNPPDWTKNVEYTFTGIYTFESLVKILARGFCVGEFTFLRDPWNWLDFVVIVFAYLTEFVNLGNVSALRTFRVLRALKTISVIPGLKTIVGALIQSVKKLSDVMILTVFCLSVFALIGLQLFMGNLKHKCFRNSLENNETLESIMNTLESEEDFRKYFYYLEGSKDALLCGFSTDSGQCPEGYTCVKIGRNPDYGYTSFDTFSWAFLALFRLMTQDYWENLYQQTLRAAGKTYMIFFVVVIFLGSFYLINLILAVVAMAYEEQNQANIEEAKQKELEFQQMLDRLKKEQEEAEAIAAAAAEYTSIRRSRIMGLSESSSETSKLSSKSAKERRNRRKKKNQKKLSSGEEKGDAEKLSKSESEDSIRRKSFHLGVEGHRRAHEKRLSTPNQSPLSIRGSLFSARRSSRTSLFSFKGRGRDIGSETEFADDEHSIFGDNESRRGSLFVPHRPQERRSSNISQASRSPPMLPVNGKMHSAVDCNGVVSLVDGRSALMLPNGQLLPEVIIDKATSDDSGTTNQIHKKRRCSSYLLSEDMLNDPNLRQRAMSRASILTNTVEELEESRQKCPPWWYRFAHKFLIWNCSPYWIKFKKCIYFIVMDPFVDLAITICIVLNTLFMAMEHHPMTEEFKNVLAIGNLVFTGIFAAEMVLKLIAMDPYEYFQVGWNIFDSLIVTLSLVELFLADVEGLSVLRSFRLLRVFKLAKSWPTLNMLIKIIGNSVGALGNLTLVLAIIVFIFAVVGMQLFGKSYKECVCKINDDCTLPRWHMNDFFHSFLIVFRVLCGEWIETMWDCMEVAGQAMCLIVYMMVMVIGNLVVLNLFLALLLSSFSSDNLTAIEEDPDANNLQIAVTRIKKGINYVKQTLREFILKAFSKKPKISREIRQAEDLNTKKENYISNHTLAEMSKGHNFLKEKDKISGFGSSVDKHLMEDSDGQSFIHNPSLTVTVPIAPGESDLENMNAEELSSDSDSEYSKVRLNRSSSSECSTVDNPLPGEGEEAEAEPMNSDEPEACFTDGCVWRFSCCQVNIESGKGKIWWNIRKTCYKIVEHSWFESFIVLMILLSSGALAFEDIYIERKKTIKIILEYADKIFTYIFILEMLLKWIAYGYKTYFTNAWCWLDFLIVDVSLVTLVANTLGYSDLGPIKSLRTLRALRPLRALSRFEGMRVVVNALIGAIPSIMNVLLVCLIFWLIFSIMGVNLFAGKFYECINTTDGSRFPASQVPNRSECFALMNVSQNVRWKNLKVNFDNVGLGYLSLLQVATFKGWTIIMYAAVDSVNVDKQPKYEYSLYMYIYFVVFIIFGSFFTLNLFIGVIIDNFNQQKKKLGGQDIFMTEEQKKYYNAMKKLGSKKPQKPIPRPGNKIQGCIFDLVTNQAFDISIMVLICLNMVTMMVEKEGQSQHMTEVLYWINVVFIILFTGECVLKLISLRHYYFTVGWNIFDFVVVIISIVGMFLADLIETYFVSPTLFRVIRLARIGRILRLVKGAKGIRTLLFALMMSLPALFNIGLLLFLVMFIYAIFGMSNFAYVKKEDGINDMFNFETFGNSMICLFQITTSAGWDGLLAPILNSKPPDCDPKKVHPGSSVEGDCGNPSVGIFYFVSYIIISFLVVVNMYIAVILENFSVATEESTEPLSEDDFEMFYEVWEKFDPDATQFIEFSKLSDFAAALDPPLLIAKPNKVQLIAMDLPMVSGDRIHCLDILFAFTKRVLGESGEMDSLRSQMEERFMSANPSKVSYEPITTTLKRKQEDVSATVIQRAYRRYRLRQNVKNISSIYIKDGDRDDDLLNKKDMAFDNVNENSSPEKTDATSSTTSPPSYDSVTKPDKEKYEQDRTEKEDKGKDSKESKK

[4] = biological target: T3, hNav1.4 (Homo sapiens, UniProt P35499); conditions: for IC50: IonWorks Quattro, read-out: IC50 Nav1.4; for Nav1.4/Nav1.7: ratio of IonWorks Quattro IC50 values
T3 sequence (P35499 whole entry): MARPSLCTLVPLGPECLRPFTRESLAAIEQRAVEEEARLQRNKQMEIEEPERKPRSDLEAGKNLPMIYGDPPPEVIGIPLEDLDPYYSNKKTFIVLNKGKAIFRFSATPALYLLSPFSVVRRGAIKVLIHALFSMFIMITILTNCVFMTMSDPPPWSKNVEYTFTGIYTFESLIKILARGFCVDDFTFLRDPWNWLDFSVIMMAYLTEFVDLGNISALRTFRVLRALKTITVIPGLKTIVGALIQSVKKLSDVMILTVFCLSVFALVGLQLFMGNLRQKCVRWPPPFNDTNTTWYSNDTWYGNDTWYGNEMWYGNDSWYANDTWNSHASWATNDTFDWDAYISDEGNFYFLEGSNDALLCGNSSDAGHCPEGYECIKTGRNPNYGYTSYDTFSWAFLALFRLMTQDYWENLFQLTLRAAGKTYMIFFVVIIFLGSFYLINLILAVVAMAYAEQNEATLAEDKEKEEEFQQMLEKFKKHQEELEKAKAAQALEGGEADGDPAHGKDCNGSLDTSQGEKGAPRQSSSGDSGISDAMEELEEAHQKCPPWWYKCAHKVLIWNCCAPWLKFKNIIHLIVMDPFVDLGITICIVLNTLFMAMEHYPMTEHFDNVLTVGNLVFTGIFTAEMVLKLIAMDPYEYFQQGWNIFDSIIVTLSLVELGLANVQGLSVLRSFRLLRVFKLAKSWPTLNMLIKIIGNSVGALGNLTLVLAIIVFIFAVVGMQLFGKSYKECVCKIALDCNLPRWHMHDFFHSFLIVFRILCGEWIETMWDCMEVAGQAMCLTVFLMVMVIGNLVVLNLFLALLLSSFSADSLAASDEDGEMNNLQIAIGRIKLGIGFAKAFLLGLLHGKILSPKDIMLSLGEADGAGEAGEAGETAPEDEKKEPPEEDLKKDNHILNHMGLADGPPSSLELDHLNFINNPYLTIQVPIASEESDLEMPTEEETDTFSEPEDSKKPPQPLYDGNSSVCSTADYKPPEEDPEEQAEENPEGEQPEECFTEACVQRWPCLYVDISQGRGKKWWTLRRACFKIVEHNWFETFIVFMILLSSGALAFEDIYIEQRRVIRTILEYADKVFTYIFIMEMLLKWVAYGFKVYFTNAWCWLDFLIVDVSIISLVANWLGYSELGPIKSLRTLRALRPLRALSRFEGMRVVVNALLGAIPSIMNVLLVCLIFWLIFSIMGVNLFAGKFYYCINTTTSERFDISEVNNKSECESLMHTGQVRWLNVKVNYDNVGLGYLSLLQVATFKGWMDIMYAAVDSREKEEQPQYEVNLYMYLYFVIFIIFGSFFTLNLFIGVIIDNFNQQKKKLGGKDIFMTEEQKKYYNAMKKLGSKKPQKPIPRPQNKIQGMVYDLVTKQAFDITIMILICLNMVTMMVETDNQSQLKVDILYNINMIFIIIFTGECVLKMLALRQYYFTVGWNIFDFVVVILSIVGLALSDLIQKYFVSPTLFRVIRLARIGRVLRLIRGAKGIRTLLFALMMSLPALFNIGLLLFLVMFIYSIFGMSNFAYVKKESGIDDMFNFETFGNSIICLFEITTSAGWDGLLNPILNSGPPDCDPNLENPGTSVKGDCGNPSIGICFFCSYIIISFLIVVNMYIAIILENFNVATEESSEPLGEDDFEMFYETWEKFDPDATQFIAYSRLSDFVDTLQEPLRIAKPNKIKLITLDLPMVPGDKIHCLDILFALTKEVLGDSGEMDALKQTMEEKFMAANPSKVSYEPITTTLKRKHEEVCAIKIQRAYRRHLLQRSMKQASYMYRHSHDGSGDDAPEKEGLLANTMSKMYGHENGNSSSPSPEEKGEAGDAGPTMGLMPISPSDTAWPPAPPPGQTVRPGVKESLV

[5] = biological target: T3, hNav1.4; conditions: for IC50: PatchXpress, tonic block, read-out: PX hNav1.4 Tonic IC50; for Nav1.4/Nav1.7: ratio of PX tonic IC50 values
[6] = biological target: T1, hNav1.5; conditions: for IC50: PatchXpress, tonic block, read-out: PX hNav1.5 Tonic IC50; for Nav1.5/Nav1.7: ratio of PX tonic IC50 values
[7] = biological target: T2, hNav1.7; format: cell-based; conditions: PatchXpress, tonic block; read-out: PX hNav1.7 Tonic IC50

| SMILES | IC50 [1] [nM] | IC50 [2] [nM] | IC50 [3] | IC50 [4] [nM] | Nav1.4/Nav1.7 [4] | IC50 [5] [nM] | Nav1.4/Nav1.7 [5] | IC50 [6] [nM] | Nav1.5/Nav1.7 [6] | IC50 [7] [nM] |
| --- | --- | --- | --- | --- | --- | --- | --- | --- | --- | --- |
| CC[C@H](C)[C@H](NC(=O)[C@H](Cc1ccc(O)cc1)NC(=O)[C@H](CCCCN)NC(=O)[C@H](CCCNC(=N)N)NC(=O)[C@@H]1CSSC[C@@H]2NC(=O)[C@H](C)NC(=O)[C@H](CCCNC(=N)N)NC(=O)[C@H](CCCCN)NC(=O)[C@H](CO)NC(=O)[C@H](CC(=O)O)NC(=O)[C@@H]3CSSC[C@H](NC(=O)[C@H](CCC(=O)O)NC(=O)[C@H](CC(C)C)NC(=O)CNC(=O)[C@H](CCC(=O)O)NC(=O)[C@H](CSSC[C@H](NC(=O)[C@@H](N)Cc4ccc(O)cc4)C(=O)N[C@@H](CCC(N)=O)C(=O)N[C@@H](CCCCN)C(=O)N[C@@H](Cc4c[nH]c5ccccc45)C(=O)N[C@@H](CCSC)C(=O)N[C@@H](CCCCN)C(=O)N[C@@H]([C@@H](C)O)C(=O)N3)NC2=O)C(=O)N[C@@H](CCCCN)C(=O)N[C@@H](CC(C)C)C(=O)N[C@@H](Cc2c[nH]c3ccccc23)C(=O)N1)C(N)=O [compound 214] | > 7000 | > 7000 | 2700 nM | > 7000 | – | – | – | – | – | – |
| CC[C@H](C)[C@H](NC(=O)[C@H](CCCCN)NC(=O)[C@H](CCCNC(=N)N)NC(=O)[C@@H]1CSSC[C@@H]2NC(=O)[C@H](C)NC(=O)[C@H](CCCNC(=N)N)NC(=O)[C@H](CCCCN)NC(=O)[C@H](CO)NC(=O)[C@H](CC(=O)O)NC(=O)[C@@H]3CSSC[C@H](NC(=O)[C@H](CCC(=O)O)NC(=O)[C@H](CC(C)C)NC(=O)CNC(=O)[C@H](CCC(=O)O)NC(=O)[C@H](CSSC[C@H](NC(=O)[C@@H](N)Cc4ccc(O)cc4)C(=O)N[C@@H](CCC(N)=O)C(=O)N[C@@H](CCCCN)C(=O)N[C@@H](Cc4c[nH]c5ccccc45)C(=O)N[C@@H](CCSC)C(=O)N[C@@H](Cc4c[nH]c5ccccc45)C(=O)N[C@@H]([C@@H](C)O)C(=O)N3)NC2=O)C(=O)N[C@@H](CCCCN)C(=O)N[C@@H](CC(C)C)C(=O)N[C@@H](Cc2c[nH]c3ccccc23)C(=O)N1)C(=O)N[C@@H](Cc1cn(CCCOCCOCCOCCOCCOCCOCCOCCOCCOCCOCCN)nn1)C(N)=O [compound 188] | – | – | ≥ 5000 nM | – | 1 | – | – | – | – | – |
| C#CC[C@H](N)C(=O)NCCOCCOCCOCCOCCC(=O)NCCCC[C@@H]1NC(=O)[C@H](CCCNC(=N)N)NC(=O)[C@H](CCCCN)NC(=O)[C@H](CO)NC(=O)[C@H](CC(=O)O)NC(=O)[C@@H]2CSSC[C@@H]3NC(=O)[C@H](CCC(=O)O)NC(=O)[C@H](CC(C)C)NC(=O)CNC(=O)[C@H](CCC(=O)O)NC(=O)[C@H](CSSC[C@H](NC(=O)[C@@H](N)Cc4ccc(O)cc4)C(=O)N[C@@H](CCC(N)=O)C(=O)N[C@@H](CCCCN)C(=O)N[C@@H](Cc4c[nH]c5ccccc45)C(=O)N[C@@H](CCCC)C(=O)N[C@@H](Cc4c[nH]c5ccccc45)C(=O)N[C@@H]([C@@H](C)O)C(=O)N2)NC(=O)[C@H](CSSC[C@@H](C(=O)N[C@@H](CCCNC(=N)N)C(=O)N[C@@H](CCCCN)C(=O)N[C@H](C(=O)N[C@@H](Cc2c[nH]c4ccccc24)C(N)=O)[C@@H](C)CC)NC(=O)[C@H](Cc2c[nH]c4ccccc24)NC(=O)[C@H](CC(C)C)NC(=O)[C@H](CCCCN)NC3=O)NC1=O [compound 291] | – | – | 28 nM | – | – | 1130 | 38 | 3010 | 100 | 30 |
| CC[C@H](C)[C@H](NC(=O)CNC(=O)[C@H](CCCCN)NC(=O)[C@H](CCCNC(=N)N)NC(=O)[C@@H]1CSSC[C@@H]2NC(=O)[C@H](C)NC(=O)[C@H](CCCNC(=N)N)NC(=O)[C@H](CCCCN)NC(=O)[C@H](CO)NC(=O)[C@H](CC(=O)O)NC(=O)[C@@H]3CSSC[C@H](NC(=O)[C@H](CCC(=O)O)NC(=O)[C@H](CC(C)C)NC(=O)CNC(=O)[C@H](CCC(=O)O)NC(=O)[C@H](CSSC[C@H](NC(=O)[C@@H](N)Cc4ccc(O)cc4)C(=O)N[C@@H](CCC(N)=O)C(=O)N[C@@H](CCCCN)C(=O)N[C@@H](Cc4c[nH]c5ccccc45)C(=O)N[C@@H](CCSC)C(=O)N[C@@H](Cc4c[nH]c5ccccc45)C(=O)N[C@@H]([C@@H](C)O)C(=O)N3)NC2=O)C(=O)N[C@@H](CCCCN)C(=O)N[C@@H](CC(C)C)C(=O)N[C@@H](Cc2c[nH]c3ccccc23)C(=O)N1)C(N)=O [compound 134] | > 5000 | – | 300 nM and 370 nM | > 5000 | 17 and 13 | – | – | – | – | – |
| C#CC[C@H](N)C(=O)NCCOCCOCCOCCOCCC(=O)NCCCC[C@@H]1NC(=O)[C@@H]2CSSC[C@H](NC(=O)[C@@H](N)Cc3ccc(O)cc3)C(=O)N[C@@H](CCC(N)=O)C(=O)N[C@@H](CCCCN)C(=O)N[C@@H](Cc3c[nH]c4ccccc34)C(=O)N[C@@H](CCCC)C(=O)N[C@@H](Cc3c[nH]c4ccccc34)C(=O)N[C@@H]([C@@H](C)O)C(=O)N[C@H]3CSSC[C@H](NC(=O)[C@H](CCC(=O)O)NC(=O)[C@H](CC(C)C)NC(=O)CNC1=O)C(=O)N[C@@H](CCCCN)C(=O)N[C@@H](CC(C)C)C(=O)N[C@@H](Cc1c[nH]c4ccccc14)C(=O)N[C@H](C(=O)N[C@@H](CCCNC(=N)N)C(=O)N[C@@H](CCCCN)C(=O)N[C@H](C(=O)N[C@@H](Cc1c[nH]c4ccccc14)C(N)=O)[C@@H](C)CC)CSSC[C@H](NC(=O)[C@H](C)NC(=O)[C@H](CCCNC(=N)N)NC(=O)[C@H](CCCCN)NC(=O)[C@H](CO)NC(=O)[C@H](CC(=O)O)NC3=O)C(=O)N2 [compound 293] | – | – | 41 nM | – | – | 453 | 1 | 580 | 1 | 570 |
| C#CC[C@H](N)C(=O)NCCOCCOCCOCCOCCOCCOCCOCCOCCOCCOCCOCCOCCC(=O)NCCCC[C@@H]1NC(=O)[C@@H]2CSSC[C@H](NC(=O)[C@@H](N)Cc3ccc(O)cc3)C(=O)N[C@@H](CCC(N)=O)C(=O)N[C@@H](CCCCN)C(=O)N[C@@H](Cc3c[nH]c4ccccc34)C(=O)N[C@@H](CCCC)C(=O)N[C@@H](Cc3c[nH]c4ccccc34)C(=O)N[C@@H]([C@@H](C)O)C(=O)N[C@H]3CSSC[C@H](NC(=O)[C@H](CCC(=O)O)NC(=O)[C@H](CC(C)C)NC(=O)CNC1=O)C(=O)N[C@@H](CCCCN)C(=O)N[C@@H](CC(C)C)C(=O)N[C@@H](Cc1c[nH]c4ccccc14)C(=O)N[C@H](C(=O)N[C@@H](CCCNC(=N)N)C(=O)N[C@@H](CCCCN)C(=O)N[C@H](C(=O)N[C@@H](Cc1c[nH]c4ccccc14)C(N)=O)[C@@H](C)CC)CSSC[C@H](NC(=O)[C@H](C)NC(=O)[C@H](CCCNC(=N)N)NC(=O)[C@H](CCCCN)NC(=O)[C@H](CO)NC(=O)[C@H](CC(=O)O)NC3=O)C(=O)N2 [compound 292] | – | – | 82 nM | – | – | 1630 | 2 | 3120 | 3 | 900 |
| CC[C@H](C)[C@H](NC(=O)[C@@H](NC(=O)[C@H](CCCCN)NC(=O)[C@H](CCCNC(=N)N)NC(=O)[C@@H]1CSSC[C@@H]2NC(=O)[C@H](C)NC(=O)[C@H](CCCNC(=N)N)NC(=O)[C@H](CCCCN)NC(=O)[C@H](CO)NC(=O)[C@H](CC(=O)O)NC(=O)[C@@H]3CSSC[C@H](NC(=O)[C@H](CCC(=O)O)NC(=O)[C@H](CC(C)C)NC(=O)CNC(=O)[C@H](CCC(=O)O)NC(=O)[C@H](CSSC[C@H](NC(=O)[C@@H](N)Cc4ccc(O)cc4)C(=O)N[C@@H](CCC(N)=O)C(=O)N[C@@H](CCCCN)C(=O)N[C@@H](Cc4c[nH]c5ccccc45)C(=O)N[C@@H](CCSC)C(=O)N[C@@H](Cc4c[nH]c5ccccc45)C(=O)N[C@@H](Cc4cn(CCCOCCOCCOCCOCCOCCOCCOCCOCCOCCOCCN)nn4)C(=O)N3)NC2=O)C(=O)N[C@@H](CCCCN)C(=O)N[C@@H](CC(C)C)C(=O)N[C@@H](Cc2c[nH]c3ccccc23)C(=O)N1)[C@@H](C)CC)C(N)=O [compound 171] | – | – | ≥ 5000 nM | – | 1 | – | – | – | – | – |
| C#CC[C@H](N)C(=O)NCCOCCOCCOCCOCCOCCOCCOCCOCCOCCOCCOCCOCCC(=O)NCCCC[C@@H]1NC(=O)[C@H](CCCNC(=N)N)NC(=O)[C@H](CCCCN)NC(=O)[C@H](CO)NC(=O)[C@H](CC(=O)O)NC(=O)[C@@H]2CSSC[C@@H]3NC(=O)[C@H](CCC(=O)O)NC(=O)[C@H](CC(C)C)NC(=O)CNC(=O)[C@H](CCC(=O)O)NC(=O)[C@H](CSSC[C@H](NC(=O)[C@@H](N)Cc4ccc(O)cc4)C(=O)N[C@@H](CCC(N)=O)C(=O)N[C@@H](CCCCN)C(=O)N[C@@H](Cc4c[nH]c5ccccc45)C(=O)N[C@@H](CCCC)C(=O)N[C@@H](Cc4c[nH]c5ccccc45)C(=O)N[C@@H]([C@@H](C)O)C(=O)N2)NC(=O)[C@H](CSSC[C@@H](C(=O)N[C@@H](CCCNC(=N)N)C(=O)N[C@@H](CCCCN)C(=O)N[C@H](C(=O)N[C@@H](Cc2c[nH]c4ccccc24)C(N)=O)[C@@H](C)CC)NC(=O)[C@H](Cc2c[nH]c4ccccc24)NC(=O)[C@H](CC(C)C)NC(=O)[C@H](CCCCN)NC3=O)NC1=O [compound 290] | – | – | 52 nM | – | – | 2730 | 5 | 6100 | 12 | 520 |
